Laboratory results reported in patent US12145923B2, “Tetrahydroisoquinoline compound, preparation method therefor, pharmaceutical composition containing same, and use thereof” (SHANGHAI INSTITUTE OF MATERIA MEDICA, CHINESE ACADEMY OF …, priority 2018, dated 2024).
Like-named read-outs stand apart in the source and are kept apart here.

Assays:
[1] = target: Human PDE4D catalytic domain (Homo sapiens (Human), UniProt Q08499); assay: Scintillation Proximity Assay (SPA), inhibition of PDE4D catalytic domain activity; type: biochemical
TNF-α secretion in PBMC = assay: Inhibition of LPS-stimulated TNF-α secretion in PBMC (ELISA); type: cell-based; conditions: Homo sapiens, TNF-α secretion in PBMC
Description: According to the difference in cell density in human blood, PBMC (peripheral blood mononuclear cell, PBMC) was directly separated and purified by gradient centrifugation using lymphocyte separation fluid. The cell type was mononuclear cells in blood, mainly including lymphocytes (T/B), monocytes, macrophages, dendritic cells and other minor cell types, of which lymphocytes account for a large part, which can directly in vitro simulate the blood immune environment.
PBMC cells isolated from human blood were implanted into 96-well plates at 2*10^5/ml; compounds in gradients were added, with at least three replicates for each gradient; After the PBMCs were incubated at 37° C., 5% CO2 for 1 hour, LPS was added (the final concentration was 10 ug/ml) to stimulate PBMC to express TNF-α, and incubated for another 18-20 h at 37° C., 5% C02. The 96-well plate was collected. The background control with no stimulant and stimulation control wells were also set, with a total volume of 200 μl. The culture supernatant was collected by centrifugation, and the expression level of TNF-α in the culture supernatant was detected by ELISA.

[2] = Cytotoxicity on RAW 264.7 cells (CCK-8 method); type: cell-based, mouse; conditions: mouse, RAW 264.7 cells; drug concentration required to cause median cytotoxicity, RAW 264.7
RAW 264.7 cells = assay: Cytotoxicity on RAW 264.7 cells (CCK-8 method); type: cell-based, mouse
[3] = system: tumor necrosis factor-α secretion in RAW 264.7 cells; assay: Inhibition of LPS-stimulated tumor necrosis factor-α secretion in RAW 264.7 cells (ELISA); type: cell-based, mouse
Description: After the activation by bacterial lipopolysaccharide (LPS), various inflammatory mediators such as tumor necrosis factor-α will be released; Phosphodiesterase PDE4 is also expressed in macrophages, and the inhibitory activity of the compound on phosphodiesterase PDE4 can be reflected by detecting the secretion of tumor necrosis factor-α.
Under the stimulation of 1 μg/ml LPS (L5886, Sigma, St. Louis, MO, USA), the cells were cultured in a 37° C., 5% CO2 incubator for 4 h. The background control with no stimulant and stimulation control wells were also set, with a total volume of 200 μl. The culture supernatant was collected by centrifugation, and the secretion level of tumor necrosis factor-α in the culture supernatant was detected by enzyme-linked immunosorbent assay. The tumor necrosis factor-α detection kit was purchased from BD Pharmingen (San Diego, CA, USA).

[4] = system: acute inflammation model of mouse back air sac; assay: Acute inflammation model of mouse back air sac (carrageenan); type: in vivo; conditions: oral gavage 5 mg/kg
Description: On the first day of the experiment, mice were subcutaneously injected with 3 ml of air on the back, and subcutaneously injected with 1.5 ml of air on the back on day 3, and subcutaneously injected with 1 ml of 2% carrageenan (Sigma-Aldrich, St. Louis, MO, USA) on the back on day 6 for sensitization. 4 hours after sensitization, secretion in the air sac was lavaged with phosphate buffer solution. The lavage fluid was used for white blood cell count and inflammatory factor detection. […] Tumor necrosis factor-α and interleukin-6 detection kits were purchased from BD Pharmingen (San Diego, CA, USA).

Rat pharmacokinetic test = type: in vivo
Description: Six male healthy rats weighing 150-200 g were randomly divided into 2 groups (n=3). Compounds 14, 16, 17, 18, 22 and 29 of the present invention were administered by gavage and intravenous injection, respectively, at a administration volume of 10 mL/kg. The drug was formulated with DMSO/Tween 80/saline solution (5:5:90, v/v/v). The rats were fasted for 12 h before testing, water ad lib, and uniformly feeded 2 h after administration.
gavage administration: 0.25, 0.5, 1.0, 2.0, 4.0, 6.0, 8.0 and 24 h after administration:
intravenous administration: 5 min, 0.25, 0.5, 1.0, 2.0, 4.0, 6.0, 8.0 and 24 h after administration;
0.3 mL of venous blood was collected at the above time points via the rat eye vein venous plexus, placed in heparinized test tube, centrifuged at 11000 rpm for 5 min. Plasma was separated and frozed in a −20° C. refrigerator.
The concentration of compounds in rat plasma was determined by LC/MS/MS. The pharmacokinetic parameters after administration were calculated by a non-compartmental model of DAS 3.0 software.

[5] = Beagle dog pharmacokinetic test; type: in vivo
Description: Six male healthy beagle dogs weighing 9-11 kg were randomly divided into 2 groups (n=3). The compound (S)-C8 of the present invention was administered by gavage administration and intravenous injection, respectively, and the administration volume was 5 mL/kg and 1 mL/kg, respectively. The gavage administration was formulated with 0.5% CMC-Na+0.25% Tween 80, and intravenous administration was formulated with 5% DMSO/40% PEG400/55% saline.
• gavage administration: 0.25, 0.5, 1.0, 2.0, 4.0, 6.0, 8.0 and 24 h after administration; • intravenous administration: 5 min, 0.25, 0.5, 1.0, 2.0, 4.0, 6.0, 8.0 and 24 h after administration; • 1 ml of venous blood was taken at the above time points from the veins of the extremities, placed in an EDTA-2K anticoagulation tube, and centrifuged at 3500 rpm for 10 minutes. Plasma was separated, and frozen in a −20° C. refrigerator. 3. Sample Testing and Data Analysis
The concentration of compound (S)-C8 in Beagle dog plasma was determined by LC/MS/MS.
The pharmacokinetic parameters after administration were calculated by a non-compartmental model of Phoenix 1.3 software (Pharsight, USA).

[6] = male, plasma, intravenous injection, 10 mg/kg
[7] = male, plasma, po, gavage, 20 mg/kg
[8] = male, plasma, intravenous injection, 3 mg/kg
[9] = male, plasma, po, gavage, 10 mg/kg

Sequence of Human PDE4D catalytic domain (Q08499 386-715): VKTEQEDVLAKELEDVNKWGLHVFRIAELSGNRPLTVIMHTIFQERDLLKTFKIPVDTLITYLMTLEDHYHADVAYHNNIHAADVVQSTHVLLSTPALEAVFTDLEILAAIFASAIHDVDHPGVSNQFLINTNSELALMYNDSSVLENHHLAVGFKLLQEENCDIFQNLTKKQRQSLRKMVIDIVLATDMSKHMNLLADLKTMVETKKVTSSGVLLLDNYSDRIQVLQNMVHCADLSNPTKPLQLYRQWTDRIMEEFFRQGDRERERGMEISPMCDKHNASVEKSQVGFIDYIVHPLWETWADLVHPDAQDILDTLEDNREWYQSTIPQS

CCOc1cc2c(cc1OC)CCN(C=O)[C@H]2CCc1c[nH]c2ccc(OC)cc12 [(S)-C8, (S)-7-ethoxy-6-methoxy-1-(2-(5-methoxy-1H-indol-3-yl)ethyl)-3,4-dihydroisoquinoline-2(1H)-formaldehyde]
inhibition at 1 µM ([1]; Compound concentration: 1 μM, read-out: PDE4D enzyme activity inhibition rate %): 95% | IC50 ([1]; PDE4D, unit given as mM, read-out: IC50): 80 nM | IC50 ([1]; read-out: IC50 value of PDE4 inhibitory activity): < 100 nM | inhibition at 1 µM (TNF-α secretion in PBMC; 1 μM, read-out: Inhibition rate %): 79.7% | inhibition at 10 µM (TNF-α secretion in PBMC; 10 μM, read-out: Inhibition rate %): 86.8% | IC50 (TNF-α secretion in PBMC; read-out: IC50): 26 nM | IC50 (TNF-α secretion in PBMC; read-out: IC50 value): 26 nM | CC50 at 4 h [2]: > 50000 nM | Cell survival rate/% (RAW 264.7 cells; RAW 264.7, 0.5 μM): 89.2% | Cell survival rate/% (RAW 264.7 cells; RAW 264.7, 5 μM): 96.1% | Cell survival rate/% (RAW 264.7 cells; RAW 264.7, 50 μM): 93.8% | inhibition at 0.5 µM ([3]; Mus musculus, RAW264.7, 4 h, RAW 264.7, 0.5 μM, read-out: Tumor necrosis factor-α inhibition rate/%): -6% | inhibition at 5 µM ([3]; Mus musculus, RAW264.7, 4 h, RAW 264.7, 5 μM, read-out: Tumor necrosis factor-α inhibition rate/%): 60.4% | inhibition at 50 µM ([3]; Mus musculus, RAW264.7, 4 h, RAW 264.7, 50 μM, read-out: Tumor necrosis factor-α inhibition rate/%): 58.1% | IC50 ([3]; Mus musculus, RAW264.7, RAW 264.7): 1900 nM | inhibitory activity on tumor necrosis factor-α compared with the positive compound Apremilast ([3]; RAW 264.7): comparable or stronger | number of leukocyte infiltration ([4]; air sac lavage): reduce | secretion level of interleukin-6 in lavage [4]: reduce | secretion level of tumor necrosis factor-α in lavage [4]: reduce | inflammatory response ([4]; 24 h and 1 h before sensitization): significantly reduce | AUC0-t (Rat pharmacokinetic test; gavage, 20 mg/kg): 491 ng·h/mL | t1/2 (Rat pharmacokinetic test; gavage, 20 mg/kg): 1.03 h | AUC0-t (Rat pharmacokinetic test; intravenous injection, 10 mg/kg): 2640 ng·h/mL | AUC(0-inf) (Rat pharmacokinetic test; [6]): 2640 ng·h/mL | MRT (Rat pharmacokinetic test; [6]): 0.544 h | half-life (Rat pharmacokinetic test; [6]): 0.707 h | Vd (Rat pharmacokinetic test; male, plasma, intravenous injection, 10 mg/kg, read-out: Vss): 2.1 L/kg | AUC0-t (Rat pharmacokinetic test; male, plasma, iv, 10 mg/kg, intravenous injection, 10 mg/kg, read-out: AUC0-t): 2640 ng·h/mL | bioavailability (Rat pharmacokinetic test; male, plasma, oral, gavage 20 mg/kg vs intravenous 10 mg/kg, dosage standardized, read-out: F (absolute bioavailability)): 9.3% | AUC0-t (Rat pharmacokinetic test; male, plasma, po, 20 mg/kg, gavage, 20 mg/kg, read-out: AUC0-t): 508 ng·h/mL | AUC(0-inf) (Rat pharmacokinetic test; [7]): 508 ng·h/mL | MRT (Rat pharmacokinetic test; [7]): 2 h | Tmax (Rat pharmacokinetic test; [7]): 1.33 h | half-life (Rat pharmacokinetic test; [7]): 1.03 h | AUC0-t ([5]; gavage, 10 mg/kg): 16601 ng·h/mL | t1/2 ([5]; gavage, 10 mg/kg): 2.92 h | AUC0-t ([5]; intravenous injection, 3 mg/kg): 9610 ng·h/mL | AUC(0-inf) [5, 8]: 9800 ng·h/mL | MRT [5, 8]: 2.37 h | half-life [5, 8]: 1.96 h | AUC0-t ([5]; male, plasma, intravenous injection, 3 mg/kg, read-out: AUC0-t): 9610 ng·h/mL | Vd ([5]; male, plasma, intravenous injection, 3 mg/kg, read-out: Vss): 0.96 L/kg | bioavailability ([5]; male, plasma, oral, gavage 10 mg/kg vs intravenous 3 mg/kg, dosage standardized, read-out: F (absolute bioavailability)): 52.3% | Cmax [5, 9]: 4680 ng/mL | MRT [5, 9]: 3.61 h | Tmax [5, 9]: 0.5 h | half-life [5, 9]: 2.92 h | AUC0-t ([5]; male, plasma, po, gavage, 10 mg/kg, read-out: AUC0-t): 16600 ng·h/mL
